Measurements from patent US20070116645A1, “Methods and compositions for inhibiting cholesterol uptake” (priority 2004, published 2007).
“Also recorded” adds a separate entry of the source.

Columns and labels:
zebrafish embryos [1] = assay: Embryo lipid composition by SPE and GC-MS (cholesterol, cholesteryl ester, triglycerides); assay type: in vivo; conditions: 72 hpf embryos, FIG. 5C
Experimental: Approximately 80 embryos at 72 hpf were placed in 0.7 ml of MBST/OG (25 mM MES, pH 6.5, 0.15 M NaCl, 1% (v/v) Triton X-100, 60 mM octylglucoside, 0.1% (w/v) SDS) and homogenized with a Tissue-Tearor™ homogenizer (Biospec Products, Inc). The sample was then sonicated (50 watts) for ten seconds, three times on ice, centrifuged at 1000×g for 5 minutes and the supernatant collected. Neutral lipids were isolated by Solid Phase Extraction (SPE) on an Oasis HLB 5 cc/200 mg LP Glass Cartridges (Waters, Milford Mass.). The columns were pre-conditioned with 3 ml of methyl tetr-butyl ether, then 3 ml methanol, and finally 3 ml of water. The sample (0.5 ml) was mixed with acetic acid (1 ml) and 5α-androstane-3α-17β-diol (recovery standard, 40 μl) and immediately applied to the column. The column was washed with 2 ml of 2% acetic acid followed by 2 ml of methanol (2%):acetic acid (2%). Neutral lipids were eluted with 3 ml of methyl tetr-butyl ether:methanol:acetic acid (75:23:2). The eluted material was dried under nitrogen, dissolved in 150 μl of hexane:isopropanol (3:2) and transferred to a gas chromatography vial. The material was dissolved in 20 μl of hexamethyldisilazane: pentafluoropropionic anhydride:acetonitrile (100:2:20) for 20 minutes at room temperature and […] was then injected onto a Chemstation gas chromatograph with a mass selective detector, Model 6890 (Agilent Technologies, Wilmington, Del.) and equipped with a SPE HT5 Aluminum Clad Fused Silica Capillary Column, 12 m, 0.32 mm ID, 0.1 um film (Supelco, Bellefonte, Pa.). The inlet temperature was 220° C., the interface temperature was 340° C. and the oven program was 140° C., hold 3 min, 20° C./min to 380° C., hold 5 min. Method of lipid detection was SIM mode with the following mass numbers: 416 for 5α-androstane-3α-17β-diol, 436 for TMS-cholesterol, 368 for cholesterol esters, 98 for triglycerides. A two step procedure was used to quantify the lipids. […]

zebrafish larvae = assay: In vivo assay for cholesterol transport (NBD-cholesterol intestinal fluorescence); conditions: 5 dpf larvae, three independent experiments, ANOVA p<0.00001
Experimental: Embryos (uninjected or anx2b MO injected) at 5 dpf were labeled with NBD-cholesterol (1,26) and blind-sorted into three groups based on intestinal fluorescence, each assigned a numerical value: 1=no or weak fluorescence, 2=moderate, 3=strong; total n=41 uninjected, 55 injected.
Zebrafish larvae were labeled (2 h) with NBD-Cholesterol prepared as previously described (1) in embryo medium (21), anesthetized (tricaine, 170 ug/ml) and placed in depression slides. Fluorescent images were captured using a Zeiss Axiocam 2 mounted on a Leica MZFL-III. For statistical analysis intestinal fluorescence was scored on a three point scale (weak, moderate and bright) and analyzed (ANOVA).

zebrafish embryos [2] = assay: Uptake of 14C-labeled glucose in embryos; assay type: in vivo; conditions: 5 dpf embryos, data not shown
Experimental: Embryos (uninjected or anx2b MO injected) at 5 dpf were placed at ten per tube in 0.5 ml embryo medium (21) containing methyl-D-glucose, 3-O-[glucose-^14C(U)] (American Radiolabeled Chemicals, Inc.) at a concentration of 12.5 μM and incubated at room temperature for 2 hours. Embryos were then chased with 0.5 ml embryo medium with 125 μM unlabeled glucose and incubated 30 minutes, then rinsed three times with chase solution, transferred to fresh tubes, vigorously homogenized with a pestle, and transferred into scintillation fluid for liquid scintillation counting. Three separate trials with 2 or 3 tubes each of uninjected and injected embryos were performed.

CAV1-ANX2b heterocomplex = assay: Immunoprecipitation and immunoblot for the CAV1-ANX2b heterocomplex in morpholino-injected embryos; assay type: in vivo, zebrafish; conditions: for CAV1-ANX2b heterocomplex present / ANX2b protein detected / CAV1 protein detected: 48 hpf embryos, MO injected at 1-8 cell stage; for ANX2b protein detected / CAV1 protein detected: FIG. 3A
Experimental: (§1) All morpholino oligonucleotides were commercially obtained (GeneTools LLC, Philomath, Oreg.). Sequences used were: cav1, 5′-[…]-3′ (SEQ ID NO: 10); anx2b, 5′-[…]-3′ (SEQ ID NO: 11); anx2b (4 base mismatch), 5′-GCCAATT TCGTTAGTAGTTGAAGAG-3 (SEQ ID NO: 12)′; anx2a, 5′-[…]-3′ (SEQ ID NO: 13). MOs were dissolved in Danieau buffer (3) at a concentration of (1-3 μg/μl) and pressure injected into the yolk of early stage larvae (1-8 cell stage) as described (3).
The embryos were lysed in 1 ml of buffer (150 mM NaCl, 1.0% NP-40, 0.5% deoxycholate, 0.1% SDS, 50 mM Tris, pH 8.0) and protein amounts determined by Lowry. Equal amounts of lysate (50 ug) were mixed together in the lysis buffer for 1 hour at 37 °C. At the end of the incubation protein A-sepharose beads (blocked with lysis buffer and 30 mg/ml BSA) were used to pre-clear the samples. Pre-cleared samples were than incubated for 18 hours at 4° C. with the appropriate antibody (2 ug/sample) before adding blocked, protein A-sepharose beads and incubating an additional 2 hours at 4° C. The beads were collected by centrifugation, washed five times in high salt RIPA buffer (500 mM NaCl). The samples were than analyzed by SDS-PAGE and immunoblot.

zebrafish embryos [3] = assay: Developmental phenotype of morpholino-injected embryos (morphology, myoD in situ hybridization); assay type: in vivo
Experimental: as §1
Methods for breeding and raising zebrafish were followed as described (21). Embryos were obtained from natural matings of wild-type (Oregon, AB) fish and staged according to criteria previously outlined (22) and by hours post-fertilization (hpf). Digoxigenin-labeled RNA probes synthesized for each gene were hybridized to embryos or larvae at various developmental stages. In situ hybridization for anx2b and cav1 expression was carried out as previously described (22).

Row | Substance | Level of cholesterol versus uninjected embryos (zebrafish embryos [1]) | Level of cholesteryl ester versus uninjected embryos (zebrafish embryos [1]) | Level of triglycerides versus uninjected embryos (zebrafish embryos [1]) | Intestinal fluorescence after feeding NBD-cholesterol (zebrafish larvae) | Uptake of 14C-labeled glucose versus uninjected embryos (zebrafish embryos [2]) | ANX2b and complex detected (duration of MO effect) (CAV1-ANX2b heterocomplex; 24, 48 and 72 hpf, FIG. 5B lanes 2-4) | CAV1-ANX2b heterocomplex present (CAV1-ANX2b heterocomplex) | ANX2b protein detected (CAV1-ANX2b heterocomplex) | CAV1 protein detected (CAV1-ANX2b heterocomplex) | ANX2b detected (duration of MO effect) (CAV1-ANX2b heterocomplex; 96 hpf, FIG. 5B lane 5) | Developmental abnormalities (zebrafish embryos [3]; zebrafish, in vivo) | Survival to the stage where NBD-cholesterol is ingested (zebrafish embryos [3]; MO-injected larvae) | Somite morphology (myoD riboprobe) (zebrafish embryos [3]; zebrafish, in vivo)
1 | anx2b MO: morpholino antisense oligonucleotide against zebrafish anx2b, 5′-GCCATTTTCCTTAGTTGTTGTAGAG-3′ (SEQ ID NO: 11) (all phosphorodiamidate morpholino (PMO)) | significantly lower | significantly lower | unaffected | a subset of the injected larvae failed to accumulate the fluorescent cholesterol analog in the digestive tract; also recorded: significant reduction in intestinal fluorescence | the same | no ANX2b and thus no complex is detected | only CAV protein monomer | did not contain ANX2b protein | only detected as a monomer | again detected | did not show any obvious developmental abnormalities | – | –
2 | cav1 MO: morpholino antisense oligonucleotide against zebrafish cav1, 5′-TGTCCCGTCCTTGTATCCGCTAGTC-3′ (SEQ ID NO: 10) (all phosphorodiamidate morpholino (PMO)) | – | – | – | – | – | – | only ANX2 protein monomer and no complex | seen only as a monomer | not detected | – | early developmental abnormalities including defects in axis elongation and somite patterning | failed to survive to a stage where NBD-cholesterol is ingested | abnormal somites
3 | anx2b MO containing 4 bases mismatched: control morpholino, anx2b with 4 base mismatch, 5′-GCCAATT TCGTTAGTAGTTGAAGAG-3 (SEQ ID NO: 12) (antisense GCCAATTTCGTTAGTAGTTGAAGAG; all phosphorodiamidate morpholino (PMO); mismatch control morpholino) [reference compound] | – | – | – | – | – | – | contained the CAV1-ANX2b heterocomplex exactly like the uninjected embryos | – | – | – | – | – | –
4 | anx2a MO: morpholino antisense oligonucleotide against zebrafish anx2a, 5′-CTAAGAACTCAGAGACCAAAGCCAT-3′ (SEQ ID NO: 13) (all phosphorodiamidate morpholino (PMO)) [reference compound] | – | – | – | – | – | – | contained the CAV1-ANX2b heterocomplex exactly like the uninjected embryos | – | – | – | – | – | –
